According to patent US10301317B2, “Inhibitors of ERK and methods of use” (Kura Oncology, Inc., priority 2013, dated 2019):
pIC50: −log10 of the molar value.

How the values were obtained:
Format in all cases: cell-based
[1] = system: H358 (Kras, G12C) cells; test: Tumor cell line proliferation assay (CellTiter Glo), H358; conditions: Homo sapiens, NCI-H358, 96 hours
[2] = system: A375 cells; test: Tumor cell line proliferation assay (CellTiter Glo), A375; conditions: Homo sapiens, A-375, 96 h, read-out: A375 (V599E) Cell Proliferation IC50
[3] = system: phospho-p90 RSK (RSK1 Thr359/Ser363) in A375 (Braf V600E) cells; test: Phospho-p90 RSK ELISA using A375 (Braf V600E) cells; conditions: Homo sapiens, A-375, 2 hours compound treatment, read-out: Cellular Phospho-p90RSK IC50

pIC50 [1] | pIC50 [2] | pIC50 [3] | SMILES
< 6.00 | 6.00 to 6.60 | ≥ 6.60 | Cc1cc(-c2n[nH]c3cc4c(cc23)CN([C@H](CO)c2cccc(Cl)c2)C(=O)N4)ccn1 [Example 26]
< 6.00 | < 6.00 | 6.00 to 6.60 | Cc1cc(-c2n[nH]c3cc4[nH]c(=O)n(Cc5ccccc5)c(=O)c4cc23)ccn1 [Example 27]
6.00 to 6.60 | 6.00 to 6.60 | ≥ 6.60 | Cc1cc(-c2n[nH]c3cc4c(cc23)CN(Cc2ccc(F)cc2)C(=O)N4)ccn1 [Example 30]
6.00 to 6.60 | 6.00 to 6.60 | ≥ 6.60 | Cn1cc(-c2n[nH]c3cc4c(cc23)CN(Cc2ccc(F)c(Cl)c2)C(=O)N4)cn1 [Example 31]
< 6.00 | < 6.00 | < 6.00 | Cc1cc(-c2n[nH]c3cc4c(cc23)CN([C@@H]2CCCNC2)C(=O)N4)ccn1 [Example 32]
 | ≥ 6.60 | ≥ 6.60 | Cc1cc(-c2n[nH]c3cc4c(cc23)CN([C@@H]2CCCN(Cc3cccc(F)c3F)C2)C(=O)N4)ccn1 [Example 185]
 | ≥ 6.60 | ≥ 6.60 | Cc1cc(-c2n[nH]c3cc4c(cc23)CN([C@@H]2CCCN(Cc3cc(F)ccc3F)C2)C(=O)N4)ccn1 [Example 187]
 | 6.00 to 6.60 | ≥ 6.60 | Cc1cc(-c2n[nH]c3cc4c(cc23)CN(CC2CCOCC2)C(=O)N4)ccn1 [Example 211]
 | ≥ 6.60 | ≥ 6.60 | Cc1cc(-c2n[nH]c3cc4c(cc23)CN(CC2CCCC2)C(=O)N4)ccn1 [Example 212]
 | ≥ 6.60 | ≥ 6.60 | Cc1cc(-c2n[nH]c3cc4c(cc23)CN(CC2CCCCC2)C(=O)N4)ccn1 [Example 213]
 | 6.00 to 6.60 | ≥ 6.60 | Cc1cc(-c2n[nH]c3cc4c(cc23)CN([C@@H]2CCCN(C(C)C(F)(F)F)C2)C(=O)N4)ccn1 (some centres unmarked) [Example 216]
 | 6.00 to 6.60 | ≥ 6.60 | Cc1cc(-c2n[nH]c3cc4c(cc23)CN(C2CCC(F)(F)CC2)C(=O)N4)ccn1 [Example 224]
 | ≥ 6.60 | ≥ 6.60 | Cc1cc(-c2n[nH]c3cc4c(cc23)CN(Cc2cc(F)cc(F)c2)C(=O)N4)cc(C)n1 [Example 225]
 | 6.00 to 6.60 | ≥ 6.60 | Cc1cc(-c2n[nH]c3cc4c(cc23)CN(Cc2ccc(F)c(Cl)c2)C(=O)N4)cc(C)n1 [Example 226]
 | 6.00 to 6.60 | ≥ 6.60 | Cc1cc(-c2n[nH]c3cc4c(cc23)CN(Cc2cccs2)C(=O)N4)cc(C)n1 [Example 227]
 | 6.00 to 6.60 | ≥ 6.60 | Cc1cc(-c2n[nH]c3cc4c(cc23)CN(Cc2nc(C)c(C)s2)C(=O)N4)ccn1 [Example 228]
 | 6.00 to 6.60 | ≥ 6.60 | Cc1cc(-c2n[nH]c3cc4c(cc23)CN(Cc2ccccc2)C(=O)N4)cc(C)n1 [Example 229]
 | 6.00 to 6.60 | ≥ 6.60 | O=C1Nc2cc3[nH]nc(-c4ccc(N5CCOCC5)nc4)c3cc2CN1Cc1cccc(Cl)c1 [Example 231]
 | 6.00 to 6.60 | ≥ 6.60 | Cc1cc(-c2n[nH]c3cc4c(cc23)CN(C(C)c2nccs2)C(=O)N4)ccn1 (centres unmarked) [Example 234]
 | ≥ 6.60 | ≥ 6.60 | Cc1cc(-c2n[nH]c3cc4c(cc23)CN([C@@H]2CCN(CC(F)(F)F)C2)C(=O)N4)cc(C)n1 [Example 237]

pIC50 [1] | pIC50 [2] | pIC50 [3] | SMILES
 | ≥ 6.60 | ≥ 6.60 | Cc1cc(-c2n[nH]c3cc4c(cc23)CN(C2CCCC2)C(=O)N4)cc(C)n1 [Example 239]
 | ≥ 6.60 | ≥ 6.60 | Cc1cc(-c2n[nH]c3cc4c(cc23)CN(Cc2cccc(C(F)(F)F)c2)C(=O)N4)ccn1 [Example 240]
 | 6.00 to 6.60 | ≥ 6.60 | Cc1cc(-c2n[nH]c3cc4c(cc23)CN([C@@H]2CN(CC(F)(F)F)C[C@H]2c2ccccc2)C(=O)N4)cc(C)n1 [Example 242]
 | ≥ 6.60 | ≥ 6.60 | Cc1cc(-c2n[nH]c3cc4c(cc23)CN(C2CCC2)C(=O)N4)ccn1 [Example 243]
 | ≥ 6.60 | ≥ 6.60 | Cc1cc(-c2n[nH]c3cc4c(cc23)CN([C@@H]2CCCN(CC(F)(F)F)C2)C(=O)N4)cc(C)n1 [Example 244]
 | ≥ 6.60 | ≥ 6.60 | Cc1cc(-c2n[nH]c3cc4c(cc23)CN([C@@H]2CCCN(Cc3ccc(C)s3)C2)C(=O)N4)ccn1 [Example 245]
 | ≥ 6.60 | ≥ 6.60 | Cc1cc(-c2n[nH]c3cc4c(cc23)CN([C@@H]2CCCN(Cc3csc(C)c3)C2)C(=O)N4)ccn1 [Example 251]
 | ≥ 6.60 | ≥ 6.60 | Cc1cc(-c2n[nH]c3cc4c(cc23)CN([C@@H]2CCCN(Cc3ccsc3)C2)C(=O)N4)ccn1 [Example 252]
 | ≥ 6.60 | ≥ 6.60 | Cc1cc(-c2n[nH]c3cc4c(cc23)CN([C@@H]2CCCN(Cc3cccs3)C2)C(=O)N4)ccn1 [Example 254]
 | < 6.00 | 6.00 to 6.60 | Cc1cc(-c2n[nH]c3cc4c(cc23)CN([C@@H]2CCN(c3ccc(F)cn3)C2)C(=O)N4)ccn1 [Example 257]
 | ≥ 6.60 | ≥ 6.60 | Cc1cc(-c2n[nH]c3cc4c(cc23)CN([C@H]2CN(Cc3ccccc3)CC(F)(F)C2)C(=O)N4)ccn1 [Example 264]
 | ≥ 6.60 | ≥ 6.60 | Cc1cc(-c2n[nH]c3cc4c(cc23)CN([C@@H]2CCN(C(C)C(F)(F)F)C2)C(=O)N4)ccn1 (some centres unmarked) [Example 267]
 | ≥ 6.60 | ≥ 6.60 | C=C(c1ccccc1)c1cc2cc3c(-c4ccnc(C)c4)n[nH]c3cc2[nH]c1=O [Example 269]
 | ≥ 6.60 | ≥ 6.60 | COc1cc(-c2n[nH]c3cc4c(cc23)CN([C@@H]2CCCN(Cc3ccccc3)C2)C(=O)N4)ccn1 [Example 270]
 | ≥ 6.60 | ≥ 6.60 | COc1cc(-c2n[nH]c3cc4c(cc23)CN([C@@H]2CCCN(Cc3ccc(F)cc3F)C2)C(=O)N4)ccn1 [Example 271]
 | ≥ 6.60 | ≥ 6.60 | COc1ccc(-c2n[nH]c3cc4c(cc23)CN([C@@H]2CCCN(Cc3ccccc3)C2)C(=O)N4)cn1 [Example 272]
 | ≥ 6.60 | ≥ 6.60 | COc1ccc(-c2n[nH]c3cc4c(cc23)CN([C@@H]2CCCN(Cc3ccc(F)cc3F)C2)C(=O)N4)cn1 [Example 273]
 | ≥ 6.60 | ≥ 6.60 | Cc1ccc(-c2n[nH]c3cc4c(cc23)CN([C@@H]2CCCN(Cc3ccccc3)C2)C(=O)N4)cn1 [Example 275]
 | ≥ 6.60 | ≥ 6.60 | COc1ncc(-c2n[nH]c3cc4c(cc23)CN([C@@H]2CCCN(Cc3ccc(F)cc3F)C2)C(=O)N4)cn1 [Example 280]
 | ≥ 6.60 | ≥ 6.60 | Cn1cc(-c2n[nH]c3cc4c(cc23)CN([C@@H]2CCCN(Cc3ccc(F)cc3F)C2)C(=O)N4)cn1 [Example 281]

pIC50 [1] | pIC50 [2] | pIC50 [3] | SMILES
 | ≥ 6.60 | ≥ 6.60 | Cc1ccc(-c2n[nH]c3cc4c(cc23)CN([C@@H]2CCCN(Cc3ccc(F)cc3F)C2)C(=O)N4)cn1 [Example 284]
 | ≥ 6.60 | ≥ 6.60 | Cn1cc(-c2n[nH]c3cc4c(cc23)CN([C@@H]2CCCN(Cc3ccccc3)C2)C(=O)N4)cn1 [Example 285]
 | ≥ 6.60 | ≥ 6.60 | Cc1cc(-c2n[nH]c3cc4c(cc23)CN([C@@H]2CCCN(Cc3sccc3F)C2)C(=O)N4)ccn1 [Example 291]
 | ≥ 6.60 | ≥ 6.60 | Cc1ncc(-c2n[nH]c3cc4c(cc23)CN([C@@H]2CCCN(Cc3ccccc3)C2)C(=O)N4)cn1 [Example 292]
 | ≥ 6.60 | ≥ 6.60 | Cc1ncc(-c2n[nH]c3cc4c(cc23)CN([C@@H]2CCCN(Cc3ccc(F)cc3F)C2)C(=O)N4)cn1 [Example 293]
 | 6.00 to 6.60 | ≥ 6.60 | Cc1cc(-c2n[nH]c3cc4c(cc23)CN([C@H]2CCN(Cc3ccccc3)C2)C(=O)N4)ccn1 [Example 301]
 | ≥ 6.60 | ≥ 6.60 | CC(c1ccccc1)c1cc2cc3c(-c4ccnc(N5CCN(C)CC5)c4)n[nH]c3cc2[nH]c1=O (centres unmarked) [Example 318]
 | 6.00 to 6.60 | ≥ 6.60 | COc1ncc(-c2n[nH]c3cc4c(cc23)CN(C2CN(Cc3ccccc3)CC(F)(F)C2)C(=O)N4)cn1 (centres unmarked) [Example 320]
 | 6.00 to 6.60 | ≥ 6.60 | CC(c1ccccc1)c1cc2cc3c(-c4ccnnc4)n[nH]c3cc2[nH]c1=O (centres unmarked) [Example 323]
 | ≥ 6.60 | ≥ 6.60 | CC(c1ccccc1)c1cc2cc3c(-c4ccc(N5CCOCC5)nc4)n[nH]c3cc2[nH]c1=O (centres unmarked) [Example 324]
 | ≥ 6.60 | ≥ 6.60 | CC(c1ccccc1)c1cc2cc3c(-c4ccnc(N5CCOCC5)c4)n[nH]c3cc2[nH]c1=O (centres unmarked) [Example 325]
 | ≥ 6.60 | ≥ 6.60 | CC(c1ccccc1)c1cc2cc3c(-c4ccncc4)n[nH]c3cc2[nH]c1=O (centres unmarked) [Example 326]
 | 6.00 to 6.60 | ≥ 6.60 | Cc1cc(-c2n[nH]c3cc4[nH]c(=O)c(C(CO)c5ccccc5)cc4cc23)ccn1 (centres unmarked) [Example 328]
 | 6.00 to 6.60 | ≥ 6.60 | CC(c1ccccc1)c1cc2cc3c(-c4cccnc4)n[nH]c3cc2[nH]c1=O (centres unmarked) [Example 330]
 | 6.00 to 6.60 | 6.00 to 6.60 | Cc1cc(-c2n[nH]c3cc4c(cc23)CN([C@@H]2CN(CC(F)(F)F)C[C@H]2C(F)(F)F)C(=O)N4)ccn1 [Example 331]
 | ≥ 6.60 | ≥ 6.60 | Cc1cc(-c2n[nH]c3cc4[nH]c(=O)c(C5CCCN(Cc6ccccc6)C5)cc4cc23)ccn1 (centres unmarked) [Example 332]
 | ≥ 6.60 | ≥ 6.60 | CC(c1ccccc1)c1cc2cc3c(-c4cnn(C)c4)n[nH]c3cc2[nH]c1=O (centres unmarked) [Example 333]
 | ≥ 6.60 | ≥ 6.60 | CC(c1ccccc1)c1cc2cc3c(NC4CCOCC4)n[nH]c3cc2[nH]c1=O (centres unmarked) [Example 338]
 | ≥ 6.60 | ≥ 6.60 | C[C@H](c1ccccc1)c1cc2cc3c(NC4CCOCC4)n[nH]c3cc2[nH]c1=O [Example 357]
 | ≥ 6.60 | ≥ 6.60 | COc1ncc(-c2n[nH]c3cc4[nH]c(=O)c(C5CCCN(Cc6ccccc6)C5)cc4cc23)cn1 (centres unmarked) [Example 364]
